# Experimental data as given in US20130085115A1, “COMBINATION THERAPY FOR LYMPHOMA” (Celgene Corporation, priority 2011, published 2013).
# Read-outs that look alike come from different tables or passages of the source.
# Key:
# CTCL cells = test: Apoptosis by Annexin V-FITC flow cytometry in CTCL cell lines; format: cell-based, Human; details: Annexin V assay measured by flow cytometry; FIGS. 5A-5D
# Protocol: Human CTCL cell lines (Hut78, SeAx, and MyLa) were grown in RPMI 1640 medium supplemented with 10% heat-inactivated fetal bovine serume (FBS), glutamine (2 mM) and streptomycin (100 μg/ml) at 37° C., 5% CO2 and 95% humidity.
# Romidepsin was used in a concentration ranging from 0.25 nM to 10 μM. 5-azacitidine was used in a concentration ranging from 500 nM to 10 μM. After 24 to 72 hours of the combined drug treatment, the levels of apoptosis and necrosis were measured by flow cytometry with Annexin V-FITC detection kit.
# [1] = cited from earlier work
Structure (SMILES),apoptosis (CTCL cells),"solubility ([1]; acetone, ethanol and methyl ketone)",solubility ([1]; dimethylsulfoxide (DMSO)),"solubility ([1]; ethanol/water (50/50), propylene glycol and polyethylene glycol)","solubility ([1]; water, water-saturated octanol, 5% dextrose in water, N-methyl-2-pyrrolidone, normal saline and 5% Tween 80 in water)"
"Nc1ncn([C@@H]2O[C@H](CO)[C@@H](O)[C@H]2O)c(=O)n1 [5-azacitidine, 4-amino-1-β-D-ribofuranozyl-s-triazin-2(1H)-one]",21.4%,insoluble,soluble,slightly soluble,sparingly soluble
"C/C=C1\NC(=O)[C@H]2CSSCC/C=C/[C@H](CC(=O)N[C@H](C(C)C)C(=O)N2)OC(=O)[C@H](C(C)C)NC1=O [romidepsin, (1S,4S,7Z,10S,16E,21R)-7-ethylidene-4,2′-bis(1-methylethyl)-2-oxa-12,13-dithia-5,8,20,23-tetrazabicyclo[8.7.6]tricos-16-ene-3,6,9,19,22-pentone]",18.8%,–,–,–,–
